Reference: patent US20240294478A1, “ANTI-CANCER COMPOUNDS AND METHODS OF USE” (YALE UNIVERSITY, priority 2021, published 2024)

What was measured:
[1] = system: PD20 cells, deficient in FANCD2 (FANCD2−/−) or complemented with FANCD2; assay: Short-term viability assay, PD20 cells; assay type: cell-based, human; conditions: PD20 FANCD2−/− vs +FANCD2
Method: (§1) FIGS. 8A-8K. (FIG. 8A) Change in percent cells with 1 micronuclei from baseline (DMSO control) after treatment as in FIGS. 5A and 5C. […] (FIG. 8B) Short-term viability assay curves for KL-50 in PD20 cells, deficient in FANCD2 (FANCD2−/−) or complemented with FANCD2 (+FANCD2). (FIG. 8C) Short-term viability assay curves for KL-50 in PEO4 (BRCA2+) and PEO1 (BRCA2−/−) cells pre-treated with 0.01% DMSO control or 10 μM O^6BG (+O^6BG) for 1 h prior to KL-50 addition. (FIG. 8D) Short-term viability assay curves for KL-50 in DLD1 BRCA2+/− and BRCA2−/−cells pre-treated with 0.01% DMSO control or 10 μM O^6BG (+O^6BG) for 1 h prior to KL-50 addition. For FIGS. 8B-8D, points, mean; error bars, SD; n=3 technical replicates. […] Change in percent cells with 1 micronuclei from baseline (DMSO control) after treatment with olaparib (10 μM) for 48 h in LN229 MGMT+/−, MMR+/−cells. […] Western blot analysis of FANCD2 ubiquitination in LN229 MGMT+/−, MMR+/−cells and PD20 FANCD2-deficient cells, complemented with empty vector (FANCD2+EV), wildtype FANCD2 (PD20+FD2) or ubiquitination-mutant FANCD2 (PD20+KR). The % FANCD2 ubiquitination (% FANCD2 Ub) is quantified as the background-corrected integrated band intensity of the upper band divided by the sum of the background-corrected integrated band intensities of the upper and lower bands. The fold change in % FANCD2 ubiquitination is presented for each cell line relative to DMSO-treated cells. Vinculin serves as loading control. For 8J-8K, points, mean; error bars, SD; n=3 technical replicates.
(§2) Short-term Cell Viability Assay. Cells were seeded in 96-well plates at 1000 or 2000 cells/well and allowed to adhere at 23° C. for 60 min and then incubated overnight at 37° C. […] Cells were imaged on a Cytation 3 imaging reader (BioTek) and quantified using CellProfiler software. For in vitro short-term growth delay experiments, IC50 values were determined from the nonlinear regression equation, [inhibitor] vs normalized response with variable slope.

[2] = system: DLD1 BRCA2+/− and BRCA2−/− cells; assay: Short-term viability assay, DLD1 BRCA2 isogenic model +/- O6BG; assay type: cell-based, human; conditions: DLD1 isogenic model
Method: as §1, §2

[3] = system: PEO4 (BRCA2+) and PEO1 (BRCA2−/−) cells; assay: Short-term viability assay, PEO1/PEO4 model +/- O6BG; assay type: cell-based, human; conditions: PE01/4 model
Method: FIGS. 8A-8K. (FIG. 8A) Change in percent cells with 1 micronuclei from baseline (DMSO control) after treatment as in FIGS. 5A and 5C. […] (FIG. 8B) Short-term viability assay curves for KL-50 in PD20 cells, deficient in FANCD2 (FANCD2−/−) or complemented with FANCD2 (+FANCD2). (FIG. 8C) Short-term viability assay curves for KL-50 in PEO4 (BRCA2+) and PEO1 (BRCA2−/−) cells pre-treated with 0.01% DMSO control or 10 μM O^6BG (+O^6BG) for 1 h prior to KL-50 addition. (FIG. 8D) Short-term viability assay curves for KL-50 in DLD1 BRCA2+/− and BRCA2−/−cells pre-treated with 0.01% DMSO control or 10 μM O^6BG (+O^6BG) for 1 h prior to KL-50 addition. For FIGS. 8B-8D, points, mean; error bars, SD; n=3 technical replicates. […] The % FANCD2 ubiquitination (% FANCD2 Ub) is quantified as the background-corrected integrated band intensity of the upper band divided by the sum of the background-corrected integrated band intensities of the upper and lower bands. […]
as §2, with “Assay.” for “Assay. Cells were seeded in 96-well plates at 1000 or 2000 cells/well and allowed to adhere at 23° C. for 60 min and then incubated overnight at 37° C.”

[4] = system: linearized pUC19 plasmid DNA; assay: Melting temperature assay; assay type: biochemical; conditions: 100 or 500 μM for 3 h
Method: Columns, mean; error bars, SD; n=2 independent analyses. For (A) and (C), points, mean; error bars, SD; n=3 technical replicates.
Melting Temperature Assay. Linearized pUC19 DNA (750 ng), prepared as described above, was incubated with the indicated concentration of either MMS or KL-50 adjusted in a final volume of 18 μL in 100 mM Tris buffer (pH 7.4) for 3 h. Drug stock concentrations were made in DMSO such that each reaction contained a fixed 5% DMSO concentration. Afterwards, 1 μL each of 20×SYBR Green dye (Invitrogen) and 20×ROX reference dye (Invitrogen) was added and melting temperature analysis was run on a StepOnePlus RT PCR System (Applied Biosciences) to generate melting temperature curves.

Row | SMILES | sensitivity of FANCD2-deficient cells [1] | therapeutic index (TI), ratio of IC50 values in MGMT+/BRCA2+ cells compared to MGMT−/BRCA2− cells [2] | therapeutic index (TI) [3] | change in DNA melting temperature [4]
1 | N.N.[Cl][Pt][Cl] [cisplatin, reference compound] | hypersensitivity to crosslinking agents in FANCD2−/−cells | 42 fold | 13 fold | 
2 | COS(C)(=O)=O [MMS, Methylmethane sulfonate, reference compound] |  |  |  | comparable changes in measured DNA melting temperature
